Experimental data as given in PMC11813896, “Bis(7)-harmine derivatives as potential multi-target anti-Alzheimer agents” (Frontiers in Chemistry, 2025).
Like-named read-outs stand apart in the source and are kept apart here.

Tests used:
BACE1 = test system: BACE1; parameters: method as in Bolognesi et al., 2010; settings: ref Bolognesi et al., 2010; read-out: IC50 for inhibiting BACE1 (bis-tacrine); cited from earlier work
BuChE = settings: cited from earlier work
Aβ1-42 = settings: cited from earlier work
AChE = settings: cited from earlier work
Aβ 1−42 = Aβ 1−42 (Homo sapiens, UniProt P05067); assay: Thioflavin T fluorescence assay, Aβ 1−42 self-aggregation; assay type: biochemical; settings: Aβ 1-42 20 μM, 37°C, 24 h
Description: The thioflavin T (Th-T) fluorescence assay was used to assess the inhibition of Aβ 1−42 self-aggregation. […] Subsequently, the reaction was terminated to a final volume of 200 μL using Th-T (10 μM) solution.

SHSY5Y cells [1] = assay: In vitro cytotoxicity, MTT assay; assay type: cell-based; settings: for cytotoxicity in SHSY5Y cells: 0.1 to 10 μM; for SHSY5Y cell viability at increased concentration: concentration increased to 10 μM (so in the source)
Description: Following this incubation period, the MTT solution was substituted with […] of DMSO and further incubated at room temperature for 10 minutes to dissolve formazan crystals formed by viable cells. Sorensen Buffer ([…]) was added subsequently followed by measuring absorbance at a wavelength of 570 nm to determine cell viability based on calculated values obtained from control samples without compound treatment. This experimental procedure was repeated independently three times.

hBuChE = hBuChE (Homo sapiens, UniProt P06276); assay: Ellman's assay, hBuChE inhibition; assay type: biochemical; settings: for IC50: Mean ± SD from 3-5 assays, read-out: IC50 (nM) for cholinesterase hBuChE; for inhibition at 1 µM: compound at 1 μM, read-out: inhibition of hBuChE in primary screening
Description: The Ellman’s assay was utilized to assess the inhibitory potential of novel bis(7)-harmine derivatives against hAChE and hBuChE. 50 μL of hAChE (0.02 unit/mL) or hBChE (0.02 unit/mL) were incubated with 10 μL of the compound in 96-well plates at 37°C for 6 min. Subsequently, 30 μL of a substrate solution containing acetylthiocholine iodide (ATCI) or butyrylthiocholine iodide (BTCI) at a concentration of 0.01 M was added, and the mixture was further incubated at 37°C for an additional duration of 12 min. Finally, the activity was measured by adding 150 μL of a solution containing 5,5′−dithiobis (2-nitrobenzoic acid) (DTNB) at a concentration of 0.01 M, followed by measuring absorbance at a wavelength of 415 nm using an Evolution 300 PC UV-Vis Spectrophotometer.

SHSY5Y cells [2] = assay: Protection of SHSY5Y cells against damage induced by Aβ 1−42, MTT; assay type: cell-based, human; settings: for cellular recovery from Aβ 1-42-induced damage: 1 μM, co-exposed with Aβ 1-42 for 48 h
Description: The protective effect of the test compounds against Aβ 1-42-induced damage was assessed by monitoring MTT reduction in cells co-exposed to the compound and Aβ 1-42 for 48 h (Figure 3) ([…]). The 6d, 8c, and 8d were tested at concentrations of 1, 5, and 10 μM. […] Therefore, it is imperative to elucidate the underlying mechanisms responsible for these protective effects.
The SHSY5Y cells were seeded in 96-well plates at a density of 1 × 10^4 cells per well and incubated at 37°C for 24 h. Each compound was dissolved in DMSO, followed by direct dilution in the cell culture medium to achieve final concentrations of 1 μM, 5 μM, and 10 μM. Aβ 1−42 was added to each well at a concentration of 5 μM. The cells were then further incubated at 37°C for an additional period of 48 h. Cell viability was subsequently assessed using the MTT assay protocol ([…]).

hAChE = hAChE (Homo sapiens, UniProt P22303); assay: biochemical; settings: for IC50: Mean ± SD from 3-5 assays, read-out: IC50 (nM) for cholinesterase hAChE
Description: 50 μL of hAChE (0.02 unit/mL) or hBChE (0.02 unit/mL) were incubated with 10 μL of the compound in 96-well plates at 37°C for 6 min. Subsequently, 30 μL of a substrate solution containing acetylthiocholine iodide (ATCI) or butyrylthiocholine iodide (BTCI) at a concentration of 0.01 M was added, and the mixture was further incubated at 37°C for an additional duration of 12 min.

recombinant hMAO-B = molecular target: T1, recombinant hMAO-B (Homo sapiens, UniProt P27338); assay: biochemical; settings: mean ± SD; read-out: IC50 (nM) for monoamine oxidases hMAO-B
T1 construct: purchased Sigma-Aldrich
T1 sequence (P27338 1-520): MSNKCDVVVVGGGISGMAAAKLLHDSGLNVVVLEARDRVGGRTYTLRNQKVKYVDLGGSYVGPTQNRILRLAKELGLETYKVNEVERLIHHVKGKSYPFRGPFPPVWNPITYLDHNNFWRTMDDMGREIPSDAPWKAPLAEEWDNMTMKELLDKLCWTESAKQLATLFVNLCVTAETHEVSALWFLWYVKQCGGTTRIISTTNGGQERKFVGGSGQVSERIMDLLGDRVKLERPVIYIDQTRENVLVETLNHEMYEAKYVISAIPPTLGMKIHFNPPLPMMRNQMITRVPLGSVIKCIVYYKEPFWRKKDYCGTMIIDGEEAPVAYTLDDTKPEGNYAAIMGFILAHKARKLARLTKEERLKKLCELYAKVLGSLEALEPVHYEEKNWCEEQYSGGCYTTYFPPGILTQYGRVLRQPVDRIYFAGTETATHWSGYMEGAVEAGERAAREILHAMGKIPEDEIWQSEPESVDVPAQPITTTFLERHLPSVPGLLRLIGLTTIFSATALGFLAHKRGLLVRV
Description: (§1) Briefly, the compounds under investigation and the reference inhibitor were preincubated with kynuramine at 37°C for 10 min in 96-well microplates. […] The enzymatic reactions were terminated by adding 400 μL of 2 N NaOH and 1,000 μL of water, followed by centrifugation at 16,000 g for 10 min. Subsequently, the concentrations of MAOs that produced 4-hydroxyquinoline were determined by measuring the fluorescence of the supernatant using a Varioskan Flash Multimode Reader ([…]) with excitation and emission wavelengths set at 310 nm and 400 nm, respectively. The IC50 values were calculated from dose-response curves and expressed as the mean ± standard deviation. These values were determined based on at least three independent experiments, each performed in triplicate.

recombinant hMAO-A = molecular target: T2, recombinant hMAO-A (Homo sapiens, UniProt P21397); assay: biochemical; settings: for IC50: mean ± SD, read-out: IC50 (nM) for monoamine oxidases hMAO-A
T2 construct: purchased Sigma-Aldrich
T2 sequence (P21397 1-527): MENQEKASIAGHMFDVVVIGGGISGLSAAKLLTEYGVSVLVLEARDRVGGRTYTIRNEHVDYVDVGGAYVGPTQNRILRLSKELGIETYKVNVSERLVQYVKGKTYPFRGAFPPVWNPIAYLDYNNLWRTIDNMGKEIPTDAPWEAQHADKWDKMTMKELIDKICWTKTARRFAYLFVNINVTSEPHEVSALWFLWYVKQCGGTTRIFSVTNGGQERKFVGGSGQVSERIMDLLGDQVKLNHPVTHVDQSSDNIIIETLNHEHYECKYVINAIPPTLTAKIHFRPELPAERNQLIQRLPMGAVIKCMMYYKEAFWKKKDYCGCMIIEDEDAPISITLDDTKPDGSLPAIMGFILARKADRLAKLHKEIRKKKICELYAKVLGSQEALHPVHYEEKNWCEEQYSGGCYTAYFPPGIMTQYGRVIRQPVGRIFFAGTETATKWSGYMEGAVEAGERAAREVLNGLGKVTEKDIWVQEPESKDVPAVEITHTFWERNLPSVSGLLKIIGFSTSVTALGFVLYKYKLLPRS
Description: as §1

hBuChE, sequence (P06276 29-602): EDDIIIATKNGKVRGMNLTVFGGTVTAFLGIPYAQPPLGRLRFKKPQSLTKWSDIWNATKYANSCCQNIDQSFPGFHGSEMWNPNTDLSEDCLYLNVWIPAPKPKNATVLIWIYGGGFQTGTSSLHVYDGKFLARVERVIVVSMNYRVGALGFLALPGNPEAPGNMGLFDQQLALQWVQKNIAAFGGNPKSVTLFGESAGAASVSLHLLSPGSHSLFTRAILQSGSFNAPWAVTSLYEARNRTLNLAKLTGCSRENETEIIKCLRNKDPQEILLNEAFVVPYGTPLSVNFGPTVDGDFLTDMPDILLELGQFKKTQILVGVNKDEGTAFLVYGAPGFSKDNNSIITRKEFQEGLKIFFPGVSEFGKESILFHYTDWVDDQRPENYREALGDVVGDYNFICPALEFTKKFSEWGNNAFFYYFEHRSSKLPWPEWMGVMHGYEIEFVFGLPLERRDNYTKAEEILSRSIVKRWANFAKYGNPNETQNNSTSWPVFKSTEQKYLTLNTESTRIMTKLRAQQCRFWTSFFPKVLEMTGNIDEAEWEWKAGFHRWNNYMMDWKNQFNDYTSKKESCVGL
Aβ 1−42, sequence (P05067 672-713 limits assumed): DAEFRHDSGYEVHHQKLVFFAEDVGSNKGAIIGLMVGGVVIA
hAChE, sequence (P22303 32-614): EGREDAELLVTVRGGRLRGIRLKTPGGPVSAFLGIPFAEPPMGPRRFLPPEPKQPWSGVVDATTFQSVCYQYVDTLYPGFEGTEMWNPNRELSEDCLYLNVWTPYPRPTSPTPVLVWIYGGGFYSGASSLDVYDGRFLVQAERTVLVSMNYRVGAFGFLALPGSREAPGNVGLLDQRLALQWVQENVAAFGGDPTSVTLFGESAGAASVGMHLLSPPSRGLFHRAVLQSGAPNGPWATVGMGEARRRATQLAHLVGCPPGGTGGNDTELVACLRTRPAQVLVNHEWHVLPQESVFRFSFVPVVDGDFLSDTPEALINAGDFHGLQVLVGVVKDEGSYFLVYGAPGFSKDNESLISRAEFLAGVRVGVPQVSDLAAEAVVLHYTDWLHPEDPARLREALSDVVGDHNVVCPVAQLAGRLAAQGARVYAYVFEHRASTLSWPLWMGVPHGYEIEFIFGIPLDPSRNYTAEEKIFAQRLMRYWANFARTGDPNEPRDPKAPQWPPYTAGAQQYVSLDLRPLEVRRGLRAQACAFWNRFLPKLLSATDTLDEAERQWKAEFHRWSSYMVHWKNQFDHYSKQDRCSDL

| Compound | IC50 (Aβ 1−42) [µM] | S.I. Selectivity index IC50(hBuChE)/IC50(hAChE) (hAChE) | IC50 (hAChE) [nM] | IC50 (recombinant hMAO-B) [nM] | S.I. Selectivity index IC50(hMAO-B)/IC50(hMAO-A) (recombinant hMAO-A) | IC50 (recombinant hMAO-A) [nM] | inhibition at 1 µM (hBuChE) [%] | also measured |
| --- | --- | --- | --- | --- | --- | --- | --- | --- |
| c1ccc2c(NCCCCCCCNc3c4c(nc5ccccc35)CCCC4)c3c(nc2c1)CCCC3 [Compound 2, Bis-tacrine] |  |  |  |  |  |  |  | IC50 (BACE1): 7500 nM; IC50 (BuChE; ref Bolognesi et al., 2010, read-out: IC50 for inhibiting BuChE (bis-tacrine)): 5.66 nM; Aβ1-42 (bis-tacrine, Figure 1) (Aβ1-42; ref Bolognesi et al., 2010): 68.0%; IC50 (AChE; ref Bolognesi et al., 2010, read-out: IC50 for inhibiting AChE (bis-tacrine)): […] |
| c1ccc2c(c1)[nH]c1c[n+](CCCCCCCCCCCC[n+]3ccc4c(c3)[nH]c3ccccc34)ccc12 [Compound 4] |  |  |  |  |  |  |  | IC50 (BuChE; ref Rook et al., 2010, Zhao et al., 2018, read-out: BuChE (bis-(2)-β-carboline 4, Figure 1)): 22 nM; IC50 (AChE; ref Rook et al., 2010, Zhao et al., 2018, read-out: AChE (bis-(2)-β-carboline 4, Figure 1)): 86 nM |
| COC(=O)c1cc2c3ccccc3n(CCCCN(C)CCN(C)CCCCn3c4ccccc4c4cc(C(=O)OC)nc(C)c43)c2c(C)n1 [Compound 5, Bis-(9)-β-carboline] |  |  |  |  |  |  |  | IC50 (BuChE; ref Rook et al., 2010, Zhao et al., 2018, read-out: BuChE (bis-(9)-β-carboline 5, Figure 1)): 1500 nM; Aβ1-42 (bis-(9)-β-carboline 5, Figure 1) (Aβ1-42; ref Rook et al., 2010, Zhao et al., 2018): 65.5%; IC50 (AChE; ref Rook et al., 2010, Zhao et al., 2018, read-out: AChE (bis-(9)-β-carboline 5, Figure 1)): 9600 nM |
| C=CCn1c2cc(OCCCCCCOc3ccc4c5ccnc(C)c5n(CC=C)c4c3)ccc2c2ccnc(C)c21 [Compound 6d, 1,6-bis ((9-allyl-1-methyl-9H-pyrido [3,4-b]indol-7-yl)oxy)hexane] | 14.1 ± 0.5 | 1.9 | 54.3 ± 3.6 | 189 ± 13.6 | 0.5 | 402 ± 23.7 |  | effect on SHSY5Y cell viability (SHSY5Y cells [1]; 0.1–100 μM, 48 h incubation): no significant impact on cell viability; IC50 (hBuChE): 102 ± 4.6 nM; cellular recovery from Aβ 1-42-induced damage (SHSY5Y cells [2]): significant cellular recovery |
| C=CCn1c2cc(OC(=O)CCCCN3CCN(Cc4ccc(C(F)(F)F)cc4)CC3)ccc2c2ccnc(C)c21 [Compound 7] |  |  |  |  |  |  |  | IC50 (BuChE; ref Du et al., 2023, Haider et al., 2018, read-out: BuChE (compound 7 of Figure 1)): 356 nM; IC50 (Aβ1-42; ref Du et al., 2023, Haider et al., 2018, read-out: Aβ1-42 (compound 7 of Figure 1)): 12400 nM; IC50 (AChE; ref Du et al., 2023, Haider et al., 2018, read-out: AChE (compound 7 of Figure 1)): 48.4 nM |
| Cc1nccc2c3ccc(OCCCCCCCOc4ccc5c6ccnc(C)c6n(C)c5c4)cc3n(C)c12 [Compound 7a, 1,7-bis ((1,9-dimethyl-9H-pyrido [3,4-b]indol-7-yl)oxy)heptane] | 6.3 ± 0.2 | >4.4 | 226 ± 13.4 | 281 ± 24.5 | 40.1 | 7.2 ± 0.8 | 37.3 | effect on SHSY5Y cell viability (SHSY5Y cells [1]; 1 μM, 48 h): pronounced detrimental effect |
| CCn1c2cc(OCCCCCCCCOc3ccc4c5ccnc(C)c5n(CC)c4c3)ccc2c2ccnc(C)c21 [Compound 8b, 1,8-bis ((9-ethyl-1-methyl-9H-pyrido [3,4-b]indol-7-yl)oxy)octane] | 18.7 ± 0.9 | 2.7 | 324 ± 20.5 | 758 ± 52.6 | 11.5 | 66.5 ± 4.1 |  | effect on SHSY5Y cell viability (SHSY5Y cells [1]; 1 μM, 48 h): pronounced detrimental effect; IC50 (hBuChE): 855 ± 48.8 nM |
| CCCn1c2cc(OCCCCCCCCOc3ccc4c5ccnc(C)c5n(CCC)c4c3)ccc2c2ccnc(C)c21 [Compound 8c, 1,8-bis ((1-methyl-9-propyl-9H-pyrido [3,4-b]indol-7-yl)oxy)octane] | 19.3 ± 1 | >6.3 | 158 ± 11.6 | 153 ± 8.3 | 9.5 | 16.4 ± 1.1 | 43.4 | cytotoxicity in SHSY5Y cells (SHSY5Y cells [1]; 48 h): negligible cytotoxicity; SHSY5Y cell viability at increased concentration (SHSY5Y cells [1]; 48 h): evident decrease in SHSY5Y cell viability |
| C=CCn1c2cc(OCCCCCCCCOc3ccc4c5ccnc(C)c5n(CC=C)c4c3)ccc2c2ccnc(C)c21 [Compound 8d, 1,8-bis ((9-allyl-1-methyl-9H-pyrido [3,4-b]indol-7-yl)oxy)octane] | 9.2 ± 0.4 | >1.0 | 963 ± 69.5 | 335 ± 13.8 |  | 25.7 ± 1.9 | 39.8 | cytotoxicity in SHSY5Y cells (SHSY5Y cells [1]; 48 h): negligible cytotoxicity; SHSY5Y cell viability at increased concentration (SHSY5Y cells [1]; 48 h): evident decrease in SHSY5Y cell viability; cellular recovery from Aβ 1-42-induced damage (SHSY5Y cells [2]): significant cellular recovery |
| Aβ 1−42: amyloid-β peptide 1−42 used to induce damage in SHSY5Y cells [reference compound] |  |  |  |  |  |  |  | reduction of viability of SHSY5Y neuroblastoma cells (SHSY5Y cells [2]; treatment with Aβ 1−42 5 μM, 48 h, MTT): 48.7% |
